Consider 1 molecule from patent US20180250313A1, “COMPOUNDS AND FORMULATIONS FOR TREATING OPHTHALMIC DISEASES” (VIEWPOINT THERAPEUTICS, INC., priority 2015, published 2018).

Data set [1] is described as follows: Ex vivo human tissue pharmacokinetic experiment: entire human globes soaked six days, C29 exposure in areas of the eye. The format is in vitro ADME. As to conditions: for Calculated Concentration: globe soaked in 1 mM API in 8% cyclodextrin in PBS, six days, room temperature; for Dilution Corrected Concentration: six days soak, 1 mM API in 8% cyclodextrin in PBS. As to the method: Pharmacokinetic experiments were performed on entire human globes (eye without appendages) to determine exposure of the compound (C29) in various areas of the eye. Each globe was obtained less than 24 hours after collection and then soaked in either a solution of 1 mM API in 8% cyclodextrin in PBS or only PBS for six days at room temperature.

Data set [2] in a line: Kinetics of compound accumulation in the lens of entire human globes soaked one to four days. It is filed as in vitro ADME. The note with it: human globes in 1 mM API in 8% cyclodextrin in PBS, room temperature. As to the method:
In a similar experiment, entire human globes were used to determine the kinetics of compound accumulation in the lens. A total of eight globes were soaked in a solution of 1 mM API in 8% cyclodextrin in PBS for one, two, three, or four days at room temperature.

Data set [3] can be described thus: Ocular distribution of Compound IIIC after intravitreal administration (LC-MS/MS of ocular tissues). The format is in vivo, New Zealand White rabbits. As to conditions: for Levels in the lens: intravitreal. An excerpt: New Zealand White rabbits obtained from the Western Oregon Rabbit Company were used for this study. 12 animals were used in this study, and all animals used were male. Prior to treatment initiation, selection of animals for the study was based on a visual appraisal of good clinical condition and body weight specifications. Animals selected for use in this study were as uniform in age and weight as possible. Animal's weights ranged from about 2.58 to about 3.22 kilograms at the start of the experiment. All animals were healthy at the time of animal selection. All animals were identified by ear tag and by cage cards listing the animal identification number, study number, group, and sex of the animal.
The compound of formula IIIC was tested at two different concentrations, 3% weight/volume and 0.5% weight/volume. For both concentrations the compound was formulated as an aqueous suspension. Details of the formulations are as follows: Formulation 1: 3% of ˜500 nm nanoparticles of a compound of formula IIIC in 0.6% tromethamine as buffer, 0.1% polysorbate-80 to aide in dispersion of the API, pH adjusted with boric acid to 7.4, and osmolarity adjusted with mannitol to 293 mOsm. Formulation 2: 0.5% of ˜500 nm nanoparticles of a compound of formula IIIC in 0.6% tromethamine as buffer, 0.1% polysorbate-80 to aide in dispersion of the API, pH adjusted with boric acid to 7.4, and osmolarity adjusted with mannitol to 293 mOsm.
Animals were assigned to one of two experimental groups based on body weight, such that each group contained 6 animals. Animals in group 1 were administered 25 μL for formulation 1 by intravitreous injection, while animals in group 2 were administered 25 μL of formulation 2. Within each group animals were further divided into 3 time points, 2 hours, 1 day and 7 days. Each time point consisted of two animals. Administration of formulations 1 and 2 occurred at time 0.
For intravitreal injections animals were anesthetized with an intramuscular injection of ketamine hydrochloride (12 to 20 mg/kg) and xylazine (5 mg/kg). One to two drops of topical proparacaine hydrochloride anesthetic (0.5%) were applied to the animal's eyes prior to the surgical procedure. The eyes were cleaned with Betadine and then rinsed with balanced salt solution (BSS). Test article was drawn up directly into a 0.3 mL insulin syringe with a 31G 5/16 inch needle, and injections were made 4 to 5 mm away from the limbus. Once the needle was inserted, 25 μL of the test article was injected. The needle was removed and the eye rinsed with BSS. […] Animals were monitored during recovery.
Animals were euthanized at the designated time points by an intravenous injection of pentobarbital (150 mg/kg). […] The concentration of compound IIIC in each collected sample was measured by LC-MS/MS. […]

Take `C[C@H](CCCC(C)(C)O)[C@H]1CC[C@H]2[C@@H]3CC=C4C[C@@H](O)CC[C@]4(C)[C@H]3CC[C@]12C` [Compound C29, 25-hydroxycholesterol]: the “Calculated Concentration” value in data set [1] (Human Cornea) was 2120 nM; in data set [1] (Human Iris), 1330 nM; in data set [1] (Human Lens), 7620 nM; in data set [1] (Human Retina) it was 4310 nM; in data set [1] (Human Vitreous Humor) it was 2410 nM. The “Dilution Corrected Concentration” value is 4.24 µM in data set [1] (Human Cornea); 2.66 µM in data set [1] (Human Iris); 15.24 µM in data set [1] (Human Lens); 8.62 µM in data set [1] (Human Retina); 4.82 µM in data set [1] (Human Vitreous Humor). Further, the “Average Concentration in Lens” value amounted to 14.5 µM in data set [2] (1 day of incubation), 20.7 µM in data set [2] (2 days of incubation), 39.8 µM in data set [2] (3 days of incubation) and 37.8 µM in data set [2] (4 days of incubation). Besides, in data set [3] (intravitreal 25 μL, 3% and 0.5% formulation, 2 hr, 24 hr, 168 hr), the “levels in the vitreous humor, course over time” value is recorded as “decreased steadily at later time points”. Also, the “levels in the vitreous humor, dependence on dose” value in data set [3] (intravitreal 25 μL, 3% versus 0.5% formulation, 2 hr, 24 hr, 168 hr) was “dose-dependent”. Besides, the “Levels in the lens” value in data set [3] (earlier time points) was “undetectable”; in data set [3] (higher-dosed group, last time point (7 days after dosing)) it was “consistently exhibiting detectable levels”.
